Test results taken from patent publication US20110045065A1, “SUBSTANCE HAVING ANTIOXIDANT, GEROPROTECTIVE AND ANTI-ISCHEMIC ACTIVITY AND METHOD FOR THE PREPARATION THEREOF” (priority 2005, published 2011).
Where “and” joins values, the source holds several entries; their conditions need not be identical. Identical values can stand only once. Entries after “also recorded” stand apart in the source; their conditions may differ.

Key:
[1] = system: acute myocardial ischemia (occlusion of the coronary artery of rats); assay: Sizes of necrosis and ischemia zones in acute myocardial ischemia; format: in vivo, rat
Method: The experiments are carried out with non-pedigree male rats having a weight of 250-300 g, which have been anesthetized with sodium ethaminale (40 mg/kg intraperitoneally). A myocardial infarction was modeled for animals, transferred to controlled breathing, by ligation of a descending branch of the left-hand coronary artery to a level of the lower edge of an auricula atrii.
The sizes of necrosis zones and ischemia zones have been determined within 4 hours after occlusion of the coronary artery by a differential indicator method, the principle of which is based on separate quantitative determination of Evans' blue (indicator of an ischemia zone) and red phormazane (indicator of an necrosis zone).

traumatic hemophthalmia = assay: Experimental traumatic hemophthalmia: preclinical and ultrasonic examination; format: in vivo, chinchilla rabbits; details: for Capability of ophthalmoscopy and eyeground: 3-point scale, 0 impossible, 3 details clearly visible; for Density of hemophthalmia: 100 SUD = ultrasonic sclera density; for Area of hemophthalmia / Volume of a hemophthalmia: parabulbar 0.5 ml of 1% solution daily
Method: Studies were carried out in 12 chinchilla rabbits having body weight 2.0-2.5 kg. A traumatic hemophthalmia was modeled by introduction of 0.5 to 0.7 ml of autoblood into a vitreous body through a puncture in a sclera on distance of 5 mm from a limbus, under a local anaesthesia. The basic group made with 6 rabbits (12 eyes), daily received a formulation prepared in accordance with the present invention parabulbarly (0.5 ml of 1% solution). A control group presented by 6 animals (12 eyes), daily received parabulbar emoxipin (2-ethyl-6-methyl-3-hydroxypiridin) in the same dosage. Treatment was carried out within 14 days after a trauma.
Besides the traditional ophthalmologic examination such as biomicroscopy, direct and indirect ophthalmoscopy, all the animals passed through ultrasonic scanning of an eye by means of the device “Voluson 730” (“Kretz”). The studies were carried out on the 1, 3, 7, 10 and 14th day of the experiment. For the estimation of efficiency of the treatment following tests were used: density, area, volume of a hemophthalmia and opportunity (possibility) of ophthalmoscopy of an eye ground. Density of a hemophthalmia was estimated in standard (conventional) units of density (SUD), 100 SUD were accepted for the maximal value, corresponding to the ultrasonic sclera density. Depending on the degree of acoustic density of a hemophthalmia, a high (100-50 SUD), medium (50-25 SUD) and low (less than 25 SUD) densities were distinguished. To determine the hemophthalmia the area measurement in sm^2 was used. The volume of the intraocular hemorrhage was studied with the help of 3D modelling in the B-regimen of a grey scale and measurement in sm^3.
At the ultrasonic examination of the intact rabbit's eyes, the average volume of vitreous body (1.0±0.9 sm^3) and the average area of a vitreous body (1.04±0.8 sm^2) were fixed. Proceeding from the obtained data, the total hemophthalmia (from 100 up to 50% of the vitreous body volume) was equated to the volume of 0.5-1.0 sm^3 and of 0.5-1.0 sm^2, a wide-spread hemophthalmia (50-25% of volume of a vitreous) corresponded to the area of 0.5-0.25 sm^3, both 0.5-0.25 sm^2, and the partial hemophthalmia occupied up to 0.25 sm^3 and 0.25 sm^2 (up to 25% of the vitreous volume).
Capability of the eyeground ophthalmoscopy was estimated by a 3-mark(point) scale depending on the image sharpness (0—ophthalmoscopy is impossible (not capable), 3—details of an eyeground are clearly visible).

[2] = rats, 16 mg/kg, within 4 hours after occlusion of the coronary artery

2,4,6-trimethyl-3-oxypyridine succinate [Compound Ic]
Ratio of necrosis zone to ischemia zone [1, 2]: 11 ± 3.3% | Ratio of necrosis zone to total mass of the myocardium [1, 2]: 4 ± 2.3% | Anti-ischemic activity in comparison ([1]; result in words): considerably higher anti-ischemic activity than the other 3-oxypyridines | Capability of ophthalmoscopy and eyeground (traumatic hemophthalmia; 1st day): 1.5 points | Density of hemophthalmia (traumatic hemophthalmia; 1st day): 84 ± 2.4 SUD | Area of hemophthalmia (traumatic hemophthalmia; 1st day): 0.49 ± 0.7 sm^2 | Volume of a hemophthalmia (traumatic hemophthalmia; 1st day): 0.53 ± 0.4 sm^3 | Capability of ophthalmoscopy and eyeground (traumatic hemophthalmia; 3rd day): 0-0.5 points | Density of hemophthalmia (traumatic hemophthalmia; 3rd day): 72 ± 3.1 SUD | Area of hemophthalmia (traumatic hemophthalmia; 3rd day): 0.74 ± 0.9 sm^2 | Volume of a hemophthalmia (traumatic hemophthalmia; 3rd day): 0.78 ± 0.2 sm^3 | Capability of ophthalmoscopy and eyeground (traumatic hemophthalmia; 7th day): 1.5 points | Density of hemophthalmia (traumatic hemophthalmia; 7th day): 49±1.4 SUD | Area of hemophthalmia (traumatic hemophthalmia; 7th day): 0.47 ± 0.4 sm^2 | Volume of a hemophthalmia (traumatic hemophthalmia; 7th day): 0.51 ± 0.6 sm^3 | Capability of ophthalmoscopy and eyeground (traumatic hemophthalmia; 10th day): 2.2 points | Density of hemophthalmia (traumatic hemophthalmia; 10th day): 23±1.1 SUD | Hemophthalmia completely resolved (traumatic hemophthalmia; 10th day, group of 6 rabbits): two animals | Area of hemophthalmia (traumatic hemophthalmia; 10th day): 0.24±0.1 sm^2 and 0.2 ± 0.1 sm^2 | Volume of a hemophthalmia (traumatic hemophthalmia; 10th day): 0.2±0.1 sm^3 and 0.24 ± 0.1 sm^3 | Hemophthalmia completely resolved (traumatic hemophthalmia; 14th day): 50 % of animals | Capability of ophthalmoscopy and eyeground (traumatic hemophthalmia; 14th day): 2.8 points | Density of hemophthalmia (traumatic hemophthalmia; 14th day): 13±0.6 SUD | Area of hemophthalmia (traumatic hemophthalmia; 14th day): 0.11 ± 0.7 sm^2 | Volume of a hemophthalmia (traumatic hemophthalmia; 14th day): 0.15 ± 0.2 sm^3 | Efficiency on resorption of traumatic hemophthalmia (traumatic hemophthalmia; conclusion in words): positive effect on the resorptive processes in a vitreous body; also recorded: much higher in comparison with emoxipin
